{"source": "patent US10493077B2", "about": "“Fused imidazo-piperidine JAK inhibitor compound” (THERAVANCE BIOPHARMA R&D IP, LLC, priority 2017, dated 2019)", "key": {"SLK": {"molecular_target": "T1, SLK (Homo sapiens, UniProt Q9H2G2)", "T1 construct": "made in house; host or cells: T7 phage in E. coli (BL21-derived) or HEK-293", "T1 sequence (Q9H2G2 whole entry)": "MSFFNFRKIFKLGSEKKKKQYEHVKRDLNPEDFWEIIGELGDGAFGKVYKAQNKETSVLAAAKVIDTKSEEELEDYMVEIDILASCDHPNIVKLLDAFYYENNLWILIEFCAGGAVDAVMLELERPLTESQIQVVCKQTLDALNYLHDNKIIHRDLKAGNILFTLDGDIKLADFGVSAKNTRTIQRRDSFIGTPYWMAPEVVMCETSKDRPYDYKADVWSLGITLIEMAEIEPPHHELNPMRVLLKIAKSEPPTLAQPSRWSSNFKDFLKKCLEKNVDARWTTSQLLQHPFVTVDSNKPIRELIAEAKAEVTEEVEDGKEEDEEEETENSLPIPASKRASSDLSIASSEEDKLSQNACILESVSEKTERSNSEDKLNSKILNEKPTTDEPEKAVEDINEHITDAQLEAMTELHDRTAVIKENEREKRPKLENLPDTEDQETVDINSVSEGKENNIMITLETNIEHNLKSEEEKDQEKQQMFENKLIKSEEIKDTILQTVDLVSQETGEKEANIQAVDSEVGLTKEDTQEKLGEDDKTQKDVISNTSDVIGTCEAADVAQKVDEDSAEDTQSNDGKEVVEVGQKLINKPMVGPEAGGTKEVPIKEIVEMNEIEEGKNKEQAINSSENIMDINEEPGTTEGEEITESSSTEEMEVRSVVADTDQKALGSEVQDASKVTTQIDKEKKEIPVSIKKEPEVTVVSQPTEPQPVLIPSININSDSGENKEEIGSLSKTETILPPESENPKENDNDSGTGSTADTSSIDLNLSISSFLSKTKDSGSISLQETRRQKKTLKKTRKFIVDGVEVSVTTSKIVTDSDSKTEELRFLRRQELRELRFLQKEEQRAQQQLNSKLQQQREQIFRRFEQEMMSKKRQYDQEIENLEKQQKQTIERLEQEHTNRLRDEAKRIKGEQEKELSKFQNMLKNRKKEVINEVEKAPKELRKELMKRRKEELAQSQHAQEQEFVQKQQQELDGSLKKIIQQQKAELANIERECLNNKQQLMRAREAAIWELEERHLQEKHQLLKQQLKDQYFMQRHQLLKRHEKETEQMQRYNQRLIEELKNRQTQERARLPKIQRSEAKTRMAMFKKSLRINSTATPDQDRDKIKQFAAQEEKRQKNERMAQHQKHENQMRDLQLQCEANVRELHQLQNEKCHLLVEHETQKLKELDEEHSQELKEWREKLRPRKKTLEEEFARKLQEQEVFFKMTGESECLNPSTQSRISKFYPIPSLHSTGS", "assay": "Kinome screen, SLK", "type": "binding", "conditions": "screened at 1 μM", "experimental": "Kinase-tagged T7 phage strains were grown in parallel in 24-well blocks in an E. coli host derived from the BL21 strain. E. coli were grown to log-phase and infected with T7 phage from a frozen stock (multiplicity of infection=0.4) and incubated with shaking at 32° C. until lysis (90-150 minutes). The lysates were centrifuged (6,000×g) and filtered (0.2 μm) to remove cell debris. The remaining kinases were produced in HEK-293 cells and subsequently tagged with DNA for qPCR detection.\nStreptavidin-coated magnetic beads were treated with biotinylated small molecule ligands for 30 minutes at room temperature to generate affinity resins for kinase assays. The liganded beads were blocked with excess biotin and washed with blocking buffer (SeaBlock (Pierce), 1% BSA, 0.05% Tween 20, 1 mM DTT) to remove unbound ligand and to reduce non-specific phage binding. […] Test compounds were prepared as 40× stocks in 100% DMSO and directly diluted into the assay. All reactions were performed in polypropylene 384-well plates in a final volume of 0.04 ml. […] The beads were then re-suspended in elution buffer (1×PBS, 0.05% Tween 20, 0.5 μM non-biotinylated affinity ligand) and incubated at room temperature with shaking for 30 minutes. The kinase concentration in the eluates was measured by qPCR."}, "IFNγ induced IP-10": {"test_system": "IFNγ induced IP-10", "assay": "Pharmacodynamic assay: inhibition of IFNγ-induced IP-10 in rabbit eyes", "type": "in vivo", "conditions": "Form 1 suspension, 0.9 mg intravitreal, 1 week pre-treatment, New Zealand White rabbits", "experimental": "The ability of a single intravitreal administration of test compound to inhibit interferon-gamma (IFNγ) induced IP-10 protein levels was measured in rabbit vitreous and retina/choroid tissues.\nA suspension formulation was prepared by combining compound 1 of Example 2 (Form 1), with 0.5% hydroxypropyl methylcellulose (HPMC E5), 0.02% Tween 80, and 9 mg/mL sodium chloride in purified water to attain a target concentration of 20 mg/mL.\nMale, New Zealand White rabbits (Liveon Biolabs, India) were used for the studies. Animals were acclimated after arrival at the research facilities (Jubilant Biosys Ltd., India). Each rabbit was given a total of two intravitreal (IVT) injections with a total dose volume of 50 μL per eye. The first IVT injection (45 μL per eye) delivered 0.9 mg of test compound or vehicle. One week later, a second IVT injection (5 μL per eye) delivered IFNγ (1 μg/eye; stock solution 1 mg/mL; Kingfisher Biotech) or vehicle for the induction of IP-10. […]\nTissues were collected 24 hours after the second IVT injection with IFNγ. Vitreous humor (VH) and retina/choroid tissues (R/C) were collected and homogenized, and IP-10 protein levels were measured using a rabbit CXCL10 (IP-10) ELISA kit (Kingfisher Biotech). The percent inhibition of IFNγ-induced IP-10 was calculated in comparison to the vehicle/vehicle and vehicle/IFNγ groups."}, "[1]": {"assay": "Ocular pharmacokinetics in rabbit eyes", "type": "in vivo", "conditions": "for half-life: rabbit, vitreous, solution formulation in 2% 2-hydroxypropyl-β-cyclodextrin, intravitreal 50 μg/eye", "experimental": "The objective of this assay was to determine the pharmacokinetics of a test compound in rabbit ocular tissues.\n1-(2-(6-(2-ethyl-5-fluoro-4-hydroxyphenyl)-4-fluoro-1H-indazol-3-yl)-1,4,6,7-tetrahydro-5H-imidazo[4,5-c]pyridin-5-yl)-2-morpholinoethan-1-one (1), prepared in Example 2, was dissolved in 2% 2-hydroxypropyl-β-cyclodextrin to attain a target concentration of 1 mg/mL. Bilateral intravitreal injection (50 μL/eye) of the solution of test compound was administered to New Zealand white rabbits (50 μg/eye). The test compound concentration was measured in ocular tissues: vitreous, aqueous, retina/choroid and iris-ciliary body at pre-determined time points post injection (30 min, 4 h, 1 d, 3 d, 7 d, 14 d). Two rabbits (four eyes) were dosed for each time point.\nA suspension formulation was prepared by combining compound 1 of Example 2 (Form 1), with 0.5% hydroxypropyl methylcellulose (HPMC E5)+0.02% Tween 80 in normal saline to attain a target concentration of 5 mg/mL, 20 mg/mL and 80 mg/mL for the 0.25 mg/eye, 1 mg/eye and 4 mg/eye doses respectively. Bilateral intravitreal injection (50 μL/eye) of the suspension of test compound was administered to New Zealand white rabbits. The test compound concentration was measured in ocular tissues as in the solution formulation assay at 30 min, 4 h, 24 h, 72 h, 7 d, 14 d, 28 d, 56 d and 84 d post injection. For the 4 mg/eye dose group, an additional time point at 168 d post injection was also collected. […] The clearance rate is consistent with the solubility of compound 1 in the vehicle and the ocular pharmacokinetic behavior in the solution formulation. […] Therefore, it is plausible that drug exposure is longer than that observed in this study. The drug concentration in plasma was measured and found to be at least 3 orders of magnitude lower than the concentration in vitreous tissue at all three concentrations.\nA suspension formulation was prepared by combining compound 1 of Example 5 (Form 2), with 0.5% hydroxypropyl methylcellulose (HPMC E5)+0.02% Tween 80 in normal saline to attain a target concentration of […], 1 mg/mL, 2 mg/mL and 20 mg/mL for the 0.02 mg/eye, 0.05 mg/eye, 0.1 mg/eye and 1 mg/eye doses respectively. Bilateral intravitreal injection (50 μL/eye) of the suspension of test compound was administered to Dutch Belted rabbits. The test compound concentration was measured in vitreous humor, aqueous humor, iris-ciliary body, retina, retinal pigment epithelial/choroidal cells and plasma at 30 min, 7 d, 14 d, 28 d, 42 d and 56 d post injection. […] Therefore, it is plausible that drug exposure is longer than that observed in this study. The drug concentration in plasma was measured and found to be at least 3 orders of magnitude lower than the concentration in vitreous tissue at all three concentrations. The 3 orders of magnitude correspond to a logarithmic scale (ie 1000 on a non-logarithmic scale)."}}, "note": "Read-outs that look alike come from different tables or passages of the source.", "data": [{"smiles": "CCc1cc(O)c(F)cc1-c1cc(F)c2c(-c3nc4c([nH]3)CCN(C(=O)CN3CCOCC3)C4)n[nH]c2c1", "note": "[Compound 1, 1-(2-(6-(2-ethyl-5-fluoro-4-hydroxyphenyl)-4-fluoro-1H-indazol-3-yl)-1,4,6,7-tetrahydro-5H-imidazo[4,5-c]pyridin-5-yl)-2-morpholinoethan-1-one]", "values": [{"measurement": "inhibition at 1 µM", "setting": "SLK", "value": 100, "unit": "%"}, {"measurement": "inhibition of IFNγ-induced IP-10 in retina/choroid tissues", "setting": "IFNγ induced IP-10", "value": 80, "unit": "%"}, {"measurement": "inhibition of IFNγ-induced IP-10 in vitreous humor", "setting": "IFNγ induced IP-10", "value": 81, "unit": "%"}, {"measurement": "ocular exposure at 24 weeks", "setting": "[1]; Form 1 suspension, intravitreal 4 mg/eye, New Zealand white rabbits", "value": "Sustained exposure"}, {"measurement": "drug concentration in plasma lower than concentration in vitreous tissue", "setting": "[1]; Form 1 suspension, intravitreal 0.25, 1 and 4 mg/eye, New Zealand white rabbits", "value": "at least 3 orders of magnitude"}, {"measurement": "ocular exposure at 12 weeks (84 d)", "setting": "[1]; Form 1 suspension, intravitreal, all doses (0.25, 1, 4 mg/eye), New Zealand white rabbits", "value": "Robust sustained exposure"}, {"measurement": "drug concentration in plasma lower than concentration in vitreous tissue", "setting": "[1]; Form 2 suspension, intravitreal 0.02, 0.05, 0.1 and 1 mg/eye, Dutch Belted rabbits", "value": "at least 3 orders of magnitude"}, {"measurement": "change of drug concentration in vitreous tissue from 30 min to last time point tested", "setting": "[1]; Form 2 suspension, intravitreal 0.02-1 mg/eye, Dutch Belted rabbits, last time point 28-56 d", "value": "very gradual decrease"}, {"measurement": "half-life", "setting": "[1]; New Zealand white, 50 μg/eye, New Zealand white rabbits, read-out: terminal half-life, vitreous tissue (converted)", "value": "~48", "unit": "h"}, {"measurement": "concentration in plasma versus vitreous tissue", "setting": "[1]; rabbit eyes, single intravitreal injection (summary of Assay 7)", "value": "at least three orders of magnitude lower"}, {"measurement": "half-life", "setting": "[1]; New Zealand white rabbits, read-out: half-life of initial decrease in concentration, vitreous tissue (converted)", "value": "~9", "unit": "h"}]}]}
